{
  "source": "patent US7504432B2",
  "about": "(priority 2000, dated 2009)",
  "key": {"[1]": {"molecular_target": "T1, m2 muscarinic acetylcholine receptor (Homo sapiens, UniProt P08172)", "T1 construct": "purchased Receptor Biology, Inc; host or cells: CHO cells", "T1 sequence (P08172 1-466)": "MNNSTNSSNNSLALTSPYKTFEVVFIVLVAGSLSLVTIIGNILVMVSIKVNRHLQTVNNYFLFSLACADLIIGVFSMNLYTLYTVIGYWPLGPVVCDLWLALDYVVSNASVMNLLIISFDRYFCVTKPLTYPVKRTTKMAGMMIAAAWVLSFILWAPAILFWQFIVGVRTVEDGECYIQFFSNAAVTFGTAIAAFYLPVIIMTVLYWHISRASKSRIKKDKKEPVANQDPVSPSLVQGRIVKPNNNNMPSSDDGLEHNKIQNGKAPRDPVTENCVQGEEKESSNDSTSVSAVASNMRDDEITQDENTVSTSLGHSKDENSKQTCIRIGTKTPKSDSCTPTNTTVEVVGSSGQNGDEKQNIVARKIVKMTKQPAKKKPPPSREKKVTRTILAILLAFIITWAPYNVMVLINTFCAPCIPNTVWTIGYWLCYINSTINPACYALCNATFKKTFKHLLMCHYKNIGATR", "assay": "biochemical", "assay_type": "binding"}, "[2]": {"molecular_target": "T2, m3 muscarinic acetylcholine receptor (Homo sapiens, UniProt P20309)", "T2 construct": "purchased Receptor Biology, Inc; host or cells: CHO cells", "T2 sequence (P20309 whole entry)": "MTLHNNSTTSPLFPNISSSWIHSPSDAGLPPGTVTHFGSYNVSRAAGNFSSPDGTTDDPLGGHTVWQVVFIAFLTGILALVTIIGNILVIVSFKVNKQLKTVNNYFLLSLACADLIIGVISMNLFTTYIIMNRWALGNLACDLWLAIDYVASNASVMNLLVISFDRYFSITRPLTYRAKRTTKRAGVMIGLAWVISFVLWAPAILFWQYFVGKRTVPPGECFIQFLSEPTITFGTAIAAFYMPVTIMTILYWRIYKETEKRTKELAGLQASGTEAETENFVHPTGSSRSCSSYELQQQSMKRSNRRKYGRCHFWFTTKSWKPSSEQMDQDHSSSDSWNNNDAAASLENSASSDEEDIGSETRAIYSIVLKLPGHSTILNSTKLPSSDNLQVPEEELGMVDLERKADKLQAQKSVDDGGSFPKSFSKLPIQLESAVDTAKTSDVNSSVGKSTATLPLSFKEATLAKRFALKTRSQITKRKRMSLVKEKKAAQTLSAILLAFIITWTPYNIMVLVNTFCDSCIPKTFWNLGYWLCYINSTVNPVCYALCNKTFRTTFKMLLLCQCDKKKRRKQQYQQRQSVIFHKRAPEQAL", "assay": "biochemical", "assay_type": "binding"}, "[3]": {"molecular_target": "T3, M2 receptor in isolated rat right atrium (Rattus norvegicus, UniProt P10980)", "T3 construct": "A male SD strain rat (weighing 300-500 g) was killed by exsanguination, and the right atrium was isolated; from tissue; host or cells: isolated right atrium of male SD rat", "T3 sequence (P10980 1-466)": "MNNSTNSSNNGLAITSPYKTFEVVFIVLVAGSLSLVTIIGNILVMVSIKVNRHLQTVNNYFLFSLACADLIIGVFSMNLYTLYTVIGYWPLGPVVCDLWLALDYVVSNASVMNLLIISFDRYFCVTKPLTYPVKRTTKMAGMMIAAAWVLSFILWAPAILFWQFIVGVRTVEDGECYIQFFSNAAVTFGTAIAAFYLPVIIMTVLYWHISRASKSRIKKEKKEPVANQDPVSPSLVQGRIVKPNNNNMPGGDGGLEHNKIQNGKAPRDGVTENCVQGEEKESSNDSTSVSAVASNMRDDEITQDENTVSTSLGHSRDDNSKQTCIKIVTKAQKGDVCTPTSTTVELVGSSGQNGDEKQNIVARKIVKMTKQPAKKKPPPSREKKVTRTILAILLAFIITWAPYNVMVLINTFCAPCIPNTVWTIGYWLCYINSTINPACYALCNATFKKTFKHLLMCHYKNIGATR", "assay": "biochemical"}, "[4]": {"molecular_target": "T4, airway M3 receptor in isolated rat trachea (Rattus norvegicus, UniProt P08483)", "T4 construct": "A male SD strain rat (weighing 300-500 g) was killed by exsanguination, and the trachea was isolated; from tissue; host or cells: isolated trachea of male SD rat", "T4 sequence (P08483 whole entry)": "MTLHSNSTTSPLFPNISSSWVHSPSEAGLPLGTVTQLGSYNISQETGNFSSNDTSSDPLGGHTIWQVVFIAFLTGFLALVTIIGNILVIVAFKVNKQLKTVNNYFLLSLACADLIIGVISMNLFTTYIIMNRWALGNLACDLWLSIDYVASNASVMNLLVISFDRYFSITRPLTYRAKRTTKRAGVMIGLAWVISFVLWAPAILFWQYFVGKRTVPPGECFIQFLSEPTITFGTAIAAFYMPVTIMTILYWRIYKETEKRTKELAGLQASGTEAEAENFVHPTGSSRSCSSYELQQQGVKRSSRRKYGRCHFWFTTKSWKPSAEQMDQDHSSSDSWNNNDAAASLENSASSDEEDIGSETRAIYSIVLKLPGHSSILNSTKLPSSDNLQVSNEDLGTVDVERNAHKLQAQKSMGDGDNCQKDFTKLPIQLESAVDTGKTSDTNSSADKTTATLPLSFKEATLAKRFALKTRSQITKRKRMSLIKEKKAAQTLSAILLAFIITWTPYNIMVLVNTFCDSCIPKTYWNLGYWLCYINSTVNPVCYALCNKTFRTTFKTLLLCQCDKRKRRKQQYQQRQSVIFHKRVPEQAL", "assay": "biochemical"}, "muscarinic M3 receptor": {"molecular_target": "T5, muscarinic M3 receptor (Canis lupus familiaris, UniProt A0A8I3N190)", "T5 construct": "12-36 months old male beagle dogs (weighing 10-15 kg) were used; from tissue; host or cells: anesthetized male beagle dogs, airway in vivo", "T5 sequence (A0A8I3N190 1-590)": "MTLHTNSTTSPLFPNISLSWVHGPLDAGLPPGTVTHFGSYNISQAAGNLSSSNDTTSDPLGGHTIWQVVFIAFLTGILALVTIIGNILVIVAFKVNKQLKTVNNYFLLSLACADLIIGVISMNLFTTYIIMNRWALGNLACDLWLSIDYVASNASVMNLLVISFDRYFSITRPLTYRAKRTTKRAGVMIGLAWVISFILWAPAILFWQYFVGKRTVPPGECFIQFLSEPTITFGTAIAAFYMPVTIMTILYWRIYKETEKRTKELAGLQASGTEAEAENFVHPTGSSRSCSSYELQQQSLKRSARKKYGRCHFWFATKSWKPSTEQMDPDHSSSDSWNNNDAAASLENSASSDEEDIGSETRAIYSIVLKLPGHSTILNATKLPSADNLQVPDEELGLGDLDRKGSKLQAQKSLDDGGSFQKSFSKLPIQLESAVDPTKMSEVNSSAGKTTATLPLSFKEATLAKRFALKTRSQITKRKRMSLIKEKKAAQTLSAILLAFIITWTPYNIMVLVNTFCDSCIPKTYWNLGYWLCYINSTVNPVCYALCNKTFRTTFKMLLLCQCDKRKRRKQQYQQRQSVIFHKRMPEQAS", "conditions": "dog, in vivo"}},
  "data": [
    {"smiles": "N=CN1CCC(CCOC(=O)[C@](O)(c2ccccc2)[C@@H]2CCC(F)(F)C2)CC1", "note": "[Example 54, 2-(1-(Iminomethyl)piperidin-4-yl)ethyl (2R)-2-((1R)-3,3-difluorocyclopentyl)-2-hydroxy-2-phenylethanoate]", "values": [
      {"measurement": "Ki", "setting": "[1]", "result": 4.76, "unit": "nM"},
      {"measurement": "Ki", "setting": "[2]", "result": 0.079, "unit": "nM"},
      {"measurement": "m2/m3 (ratio of Ki)", "setting": "[2]", "result": 60.2},
      {"measurement": "Kb", "setting": "[3]", "result": 10.6, "unit": "nM"},
      {"measurement": "Kb", "setting": "[4]", "result": 0.21, "unit": "nM"},
      {"measurement": "M2/M3 (ratio of KB)", "setting": "[4]; rat, right atrium / trachea", "result": 50},
      {"measurement": "Shift Value 5 minutes after", "setting": "muscarinic M3 receptor", "result": ">30"},
      {"measurement": "Shift Value 4 hours after", "setting": "muscarinic M3 receptor", "result": ">30"},
      {"measurement": "Shift Value 24 hours after", "setting": "muscarinic M3 receptor", "result": 3.9}
    ]}
  ]
}
